# In patent publication US20050090498A1, “3-Quinolin-2(1h)-ylideneindolin-2-one derivative” (priority 2001, published 2005):
# pIC50: −log10 of the molar value.
# Tests used:
# [1] = test system: human colon tumor COLO 205; assay: In vivo anti-tumor test using human colon tumor bearing nude mice; design: species or system female Balb/c nude mouse; conditions: COLO 205 bearing nude mice, oral once a day for 14 days, 10 or 30 mg/kg/day
# Experimental: Test method: A total of 4×10^6 cells of a human colon tumor COLO 205 were administered under the dorsal side skin of each female Balb/c nude mouse. When the tumor volume reached 50 to 100 mm^3, each of the test compounds was orally administered once a day for 14 days. In addition, 0.5% methyl cellulose aqueous solution was orally administered to the control group. Calipers were used for the measurement of tumor diameter, and it was measured on the next day of the final administration. In this case, the tumor volume was calculated using the following calculation formula. Tumor volume=(width^2×length)/2
# [2] = test system: Human umbilical vein endothelial cells (HUVEC), VEGF-stimulated; assay: Test on the inhibition of VEGF-stimulated HUVEC growth ([3H]thymidine incorporation); type: cell-based; conditions: human recombinant VEGF 10 ng/ml
# Experimental: Test method: (Cell culture) Human umbilical vein endothelial cells (HUVEC) were cultured using EGM-2 complete medium (Clonetics) which had been supplemented with additives (2% FBS, 0.4% FGF (fibroblast growth factor), 0.1% VEGF, 0.1% IGF-I (insulin like growth factor-I), 0.1% EGF (epidermal growth factor), 0.1% ascorbic acid, 0.1% GA-1000, 0.1% heparin and 0.04% hydrocortisone).
# (Evaluation of compounds) HUVEC (10,000 cells/well) were inoculated into EGM-2 complete medium in a gelatin-coated 96 well plate (mfd. by IWAKI) and cultured overnight. After washing with a physiological phosphate buffer, the medium was exchanged with a low serum medium (Medium 199/0.1% FBS) and the culturing was continued for 24 hours. Each of the compounds to be evaluated was prepared as a 10 mM DMSO solution and diluted with the low serum medium. This was added to each well to a final concentration of from 0.001 to 10 μM. After 2 hours of the compound treatment, human recombinant VEGF (R & D Systems) was added to a final concentration of 10 ng/ml. After 18 hours, [^3H]thymidine (Amersham Pharmacia) was added in 5 μCi/well portions. After 4 hours, the reaction was terminated by adding 0.2% SDS in 50 μl/well portions, and the product was recovered on GF/C Unifilter (Packard). After adding 25 μl of Microscinti 20 (Packard), the radioactivity incorporated into the DNA trapped on the filter was measured using TopCount (Packard). The IC50 of the inhibitory activity of each compound was calculated as the 50% inhibition concentration (IC50 value) of each compound to be tested, by defining the incorporated amount of [^3H]thymidine at the time of VEGF addition as 100%, and its incorporated amount at the time of no addition of VEGF as 0%.
# [3] = test system: Human umbilical vein endothelial cells (HUVEC), VEGF-stimulated; assay: as above; type: cell-based; conditions: human recombinant VEGF 10 ng/ml; remark: listed apart in the source
# [4] = test system: VEGF-dependent in vitro angiogenesis (endotherial vessel forming amount); assay: In vitro angiogenesis inhibition test (KURABO angiogenesis kit, CD31 staining); type: cell-based; conditions: Homo sapiens, 312 h; 10 ng/ml VEGF, 13 days culture, anti-VEGF antibody as 0% control
# Experimental: Test method: An angiogenesis assay kit (mfd. by KURABO was used. A medium prepared by adding 10 ng/ml of VGEF (R & D Systems) to the special medium attached to the kit used as the culture medium. Each test drug was prepared as a 10 mM DMSO solution and added to a final concentration of from 0.003 to 1 μM by diluting with the special medium. Amount of angiogenesis under a condition of not adding the test drug was used as the positive control, and a condition under which 25 μg/ml of an anti-VEGF antibody (Sigma) was added was used as the negative control. On the 4th, 7th and 10th days after commencement of the culturing, the test drug was prepared as described in the above and exchanged with the medium of each well. On the 13th day, fixation of the cell layer was carried out in accordance with the method attached to the kit. That is, fixation of cell layer was carried out by adding ice-cooled 70% ethanol after washing with a physiological phosphate buffer and then allowing to stand at room temperature for 30 minutes. […]
# A endotherial vessel staining kit CD31 for staining (mfd. by KURABO) was used for the staining of the thus formed hollow organ. […] By importing the file preserved in the imaging software, the number of pixel obtained by threshold and measure commands was recorded. […]
SMILES,tumor growth inhibition (tumor volume) versus control [1],pIC50 [2],pIC50 [3],pIC50 [4]
O=C1Nc2ccccc2C1=C1C=Cc2cc(CNC3CCOCC3)ccc2N1 [Example 115],inhibit the tumor growth with a significance for the control,–,–,–
O=C1Nc2ccccc2C1=C1C=Cc2cc(CNCC3CCCO3)ccc2N1 (stereo not drawn) [Example 111],inhibit the tumor growth with a significance for the control,6.52,–,–
Cl.O=C1Nc2ccccc2C1=C1C=Cc2cc(CNCC3CCOCC3)ccc2N1 [Example 113],inhibit the tumor growth with a significance for the control,–,–,–
"CN1CCN(C(=O)c2ccc3c(c2)C=CC(=C2C(=O)Nc4ccccc42)N3)CC1 [Example 148, 3-[6-(4-methylpiperazine-1-carbonyl)quinolin-2(1H)-ylidene]indolin-2-one]",inhibit the tumor growth with a significance for the control,–,7.13,–
CCN(CC)CCOc1ccc2c(c1)C=CC(=C1C(=O)Nc3ccccc31)N2.O=C(O)CCC(=O)O [Example 44],inhibit the tumor growth with a significance for the control,6.55,–,–
CN1CCN(CCOc2ccc3c(c2)C=CC(=C2C(=O)Nc4ccccc42)N3)CC1 [Example 41],inhibit the tumor growth with a significance for the control,6.92,–,–
"O=C1Nc2ccccc2C1=C1C=Cc2ccccc2N1 [Compound A, 3-quinolin-2(1H)-ylideneindolin-2-one]",–,–,6.85,7.16
O=C1Nc2ccccc2C1=C1C=Cc2cc(CN3CCOCC3)ccc2N1 [Example 54],inhibit the tumor growth with a significance for the control,7.54,–,–
"O=C1Nc2ccccc2C1=C1C=Cc2cc(OCCN3CCOCC3)ccc2N1 [Example 4, 3-[6-(2-morpholin-4-ylethoxy)quinolin-2(1H)-ylidene]indolin-2-one]",inhibit the tumor growth with a significance for the control,–,6.72,–
O=C1Nc2cc(F)ccc2C1=C1C=Cc2cc(OCCN3CCOCC3)ccc2N1 [Example 310],inhibit the tumor growth with a significance for the control,6.51,–,–
"CCN1CCN(Cc2ccc3c(c2)C=CC(=C2C(=O)Nc4ccccc42)N3)CC1 [Example 134, 3-{6-[(4-ethylpiperazin-1-yl)methyl]quinolin-2(1H)-ylidene}indolin-2-one]",inhibit the tumor growth with a significance for the control,–,–,–
"CN1CCN(Cc2ccc3c(c2)C=CC(=C2C(=O)Nc4ccccc42)N3)CC1 [Example 132, 3-{6-[(4-methylpiperazin-1-yl)methyl]quinolin-2(1H)-ylidene}indolin-2-one]",inhibit the tumor growth with a significance for the control,–,–,–
O=C1Nc2ccc(F)cc2C1=C1C=Cc2cc(OCCN3CCOCC3)ccc2N1 [Example 311],inhibit the tumor growth with a significance for the control,6.62,–,–
CCN(CC)CCCc1ccc2c(c1)C=CC(=C1C(=O)Nc3ccccc31)N2 [Example 99],inhibit the tumor growth with a significance for the control,6.89,–,–
